Literature values as cited in patent publication US20050129764A1, “Osmotic device containing licofelone” (priority 2003, published 2005).

What was measured:
[1] = 200 mg dose administered twice daily
[2] = single dose (800-3,200) mg, volunteers
[3] = system: osteoarthritis of the knee; conditions: phase III

## CC1(C)Cc2c(-c3ccccc3)c(-c3ccc(Cl)cc3)c(CC(=O)O)n2C1 [licofelone]
[1]
  elimination half-life (T1/2β): 8.7 to 11.1 h
  peak plasma licofelone concentrations: 1650 to 1750 ng/mL
  time post-dose at which peak plasma concentrations were reached: 0.74 to 4 h
[2]
  tolerability: generally well tolerated
[3]; licofelone 400 mg/day bid
  improvement in efficacy parameters: greatest improvement in efficacy parameters
[3]; n=704, licofelone 200 and 400 mg/day bid, naproxen 1000 mg/day bid
  efficacy in long-term treatment of osteoarthritis of the knee vs naproxen: at least as effective as naproxen
other
  activity in animal experiments: antiphlogistic, analgesic, antipyretic, antiasthmatic and antiaggregative activity
Animal experiments
  gastrointestinal damage at active dosage: no gastrointestinal damage
